Source: patent US7169813B2, “4-oxo-fenretinide, administered alone and in combination with fenretinide, as preventive and therapeutic agent for cancer” (Fondazione IRCCS “Istituto Nazionale Dei Tumori”, priority 2004, dated 2007)
Several values for one entry are separate records, joined by “and”; a condition that tells them apart may be missing. Equal values may be shown once. Read-outs that look alike come from different tables or passages of the source. One block for each compound: values may come before it.

Key:
OVCA432 = assay: Growth inhibition (sulforhodamine B assay), single agents and combination; type: cell-based, human
Description: (§1) The following human ovarian carcinoma cell lines were tested: A2780 was obtained from Dr. R. F. Ozols (National Cancer Institute, Bethesda, Md., USA); IGROV-1 was obtained from Dr. J. Benard (Villejuif, France); OVCA432 was obtained from Dr. R. C. Knapp (Boston, Mass., USA); OAW42 and SKOV-3 were purchased from ATCC (Rockville, Md., USA). A2780/HPR, a 4-HPR— resistant ovarian carcinoma cell line, was obtained in our laboratory by continuous exposure of A2780 cells to increasing concentrations of 4-EPR as previously described (Appierto et al., Br. J. Cancer, 2001, 84:1528–1534; Prinetti et al., J. Biol. Chem., 2003, 278:5574–5583). Briefly, cells surviving 60 transplants in 4-HPR —containing medium (3 transplants at 1 μM, 11 transplants at 2 μM, 8 transplants at 3 μM, and 38 transplants at 5 μM) were cloned by limiting dilution. […] Therefore, A2780/HPR cells were continuously maintained in 5 μM 4-HPR and seeded without 4-HPR in all the experiments performed to test their sensitivity to 4-oxo-4-HPR.
(§2) The following human breast tumor cell lines, obtained from Dr. R. Sutherland (Garvan Institute, Sydney, Australia) were tested: T-47D, BT-20 and MCF-7. The following human neuroblastoma cell lines, purchased from ATCC, were tested: SK-N-BE, SK-N-SH, SK-N-MC, and GI-LI-N. All cell lines were grown in monolayer, in medium containing 10% fetal bovine serum (Invitrogen) in 5% CO2 at 37° C. The medium for A2780, A2780/HPR, IGROV-1, OVCA432, SKOV-3, T-47D, BT-20, MCF-7, GI-LI-N and SK-N-BE cells was RPMI 1640 (Cambrex, Verviers, Belgium) and the medium for OAW42, SK-N-MC and SK-N-SH cells was EMEM (ATCC).
(§3) For the growth inhibition assays, cells were seeded at a density of 3500 cells per well in 96 cluster tissue culture plates, and treated 24 hr after seeding with different concentrations of 4-oxo-4-HPR or 4-HPR. 4-oxo-4-HPR was dissolved in absolute ethanol and 4-HPR (obtained from Dr. J. A. Crowell —NCI Bethesda, Md., USA) was dissolved in Me2SO. […] Control cultures received the same amount of ethanol or Me2SO as the treated cultures. 72 hr after treatment cell number was estimated by using the sulforhodamine B assay according to Monks et al., (J. Natl. Cancer, 1991, 11: 757–766). The survival of treated cells was calculated for the various drug concentrations as percentage of the survival of control cells. The antiproliferative activity of 4-oxo-4-HPR and 4-HPR in each cell line, was tested in three separate experiments and the average values ±SD are reported in FIGS. 2, 3, and 4.
(§4) The antiproliferative effect of the combination of the two drugs, administered at one single dose, was also tested in other ovarian carcinoma cell lines and in breast tumor cell lines. The type of interaction between 4-HPR and 4-oxo-4-HPR was assessed by the method of Drevinko et al., as described in Cancer Biochem. Biophys., 1976, 1:187–195. For this evaluation the drugs were assumed to provide independent effects. The combination index (CI) was calculated as follows: survival fraction (SF) of the combination of 4-HPR+4-oxo-4-HPR divided by (SF 4-HPR×SF 4-oxo-4-HPR). The results for CI are defined as follows: CI=1 indicates an additive effect, CI<1 indicates a supra-additive effect and CI>1 indicates a sub-additive effect.

A2780/HPR [1] = assay: as above; type: cell-based, human; conditions: for Survival (% control cells): single experiments
Description: as §1, §2, §3, §4

plasma retinol levels = assay: Effects on plasma retinol in mice; type: in vivo; conditions: mice i.p. 120 mg/kg for 4 days; for Retinol % reduction: plasma, baseline vs 5 h after last treatment, control 22
Description: One of the main side effects of 4-HPR, is diminished dark adaptation or nyctalopia (Formelli et al., FASEB J., 1996, 10:1014–1024) which is caused by a decrease in plasma retinol levels (Formelli et al., Cancer Res., 49:6149–6152). The influence of 4-oxo-4-HPR on plasma retinol levels was assessed in mice and was compared with the effects caused by 4-HPR. Animal studies were approved by the Ethics Committee for Animal Experimentation of Istituto Nazionale Tumori (Milan Italy) and were carried out according to national and international guidelines (Italian Governing Law, Legislative decree 116, Jan. 27, 1992 and UKCCCR guidelines for the welfare of animals in experimental neoplasia. Br. J. Cancer 1988, 58:109–113). Female Swiss nude mice (7–9 weeks old) were supplied by Charles River (Calco, Italy) and kept in laminar air-flow rooms in sterilised cages, with bedding, food and acidified water. 4-HPR was obtained from Dr. J. A. Crowell —NCI Bethesda, Md., USA. 4-oxo-4-HPR and 4-HPR were dissolved in absolute ethanol and then diluted in a sterile 0.9% (w/v) NaCl solution containing 1,65 mg/ml bovine serum albumin (Sigma, St Louis, Mo., USA) at a final ethanol concentration of 10% (v/v). The drug solutions were freshly prepared once a week, protected from light and kept at 4° C. Mice were treated i.p. with 120 mg/kg of 4-oxo-4-HPR or 4-HPR for 4 days. The two drugs were delivered at a volume of 10 ml/kg of body weight. Control mice were treated with the same solvent of 4-oxo-4HPR and 4-HPR. Three mice per group were used. Blood samples, for drug and retinol measurements, were drawn from the retroorbital plexus of anesthetized mice before and 5 hr after the last treatment, collected into heparinized tubes and wrapped in aluminium foil in order to protect them from light. Retinol and drug concentrations in plasma were assayed by HPLC as previously described (Formelli et al., Cancer Res. 1989, 49:6149–6152) and as above reported (see Exemple 1) and are reported in Table 3.

A2780/HPR [2] = assay: Apoptosis induction (Cell Death Detection ELISA, DNA fragmentation); type: cell-based, human; conditions: 5 μM, 24 hr
Description: Although the mechanism of action of 4-HPR is not well understood, its tumor growth inhibitory effects have been attributed to apoptosis induction (Supino et al., Int. J. Cancer, 1996, 65:491–497). The apoptosis inducing effects of 4-oxo-4-HPR were compared with those of 4-HPR in the human ovarian carcinoma cell line A2780 and in its counterpart A2780/HPR, with induced resistance to 4-HPR. Apoptosis was evaluated by a Cell Death Detection ELISA Plus Assay Kit (Roche Diagnostic GmbH, Germany) according to the manufacturer's instructions. This assay quantitates the amount of cytoplasmic histone-associated DNA fragments which increases during apoptosis. Cells were seeded in 96-well cell culture plates and treated the day after with 5 μM 4-oxo-4-HPR or 4-HPR for 24 hr.

[3] = OVCA432; single agent 1 μM; 72 h; single experiments

IC50 (A2780/HPR [1]; Homo sapiens, A2780/HPR (4-HPR-resistant), 72 h, read-out: 50% Inhibitory Concentrations (IC50) at 72 h): 8 µM
Retinol % reduction (plasma retinol levels): 56%
SMILES: CC1=C(/C=C/C(C)=C/C=C/C(C)=C/C(=O)Nc2ccc(O)cc2)C(C)(C)CCC1 [4-HPR, N-(4-hydroxyphenyl)retinamide, reference compound]
IC50 (OVCA432; Homo sapiens; OVCA432; 72 h; read-out: 50% Inhibitory Concentrations (IC50) at 72 h): 8 µM
Survival (% control cells) (OVCA432; [3]): 115 % control cells and 105 % control cells
Survival (% control cells) (A2780/HPR [1]; A2780/HPR, 4-HPR 5 μM, 72 h): 81 % control cells and 89 % control cells
induction of apoptosis (DNA fragmentation, fold versus control cells) (A2780/HPR [2]): had no effect

SMILES: CC1=C(/C=C/C(C)=C/C=C/C(C)=C/C(=O)Nc2ccc(O)cc2)C(C)(C)CCC1=O [4-oxo-4-HPR, 4-oxo-N-(4-hydroxyphenyl)retinamide]
IC50 (OVCA432; Homo sapiens, OVCA432, 72 h, read-out: 50% Inhibitory Concentrations (IC50) at 72 h): 2.5 µM
Survival (% control cells) (OVCA432; [3]): 98 % control cells and 102 % control cells
Survival (% control cells) (A2780/HPR [1]; A2780/HPR, 4-oxo-4-HPR 0.3 μM, 72 h): 96 % control cells and 84 % control cells and 71 % control cells
tumor cell survival (FIG. 2), in words (A2780/HPR [1]; A2780/HPR, 72 hr, 0.3 to 10 μM): highly effective
reduction of plasma retinol levels, in words (plasma retinol levels): reduction only slightly higher than observed in control mice
Retinol % reduction (plasma retinol levels): 38%
induction of apoptosis (DNA fragmentation, fold versus control cells) (A2780/HPR [2]): induced apoptosis
